Source: ChEMBL document CHEMBL3124779, “Discovery of ABT-267, a pan-genotypic inhibitor of HCV NS5A” (J Med Chem, 2014)

Experiments:
Hepatitis C virus [1] = assay: Antiviral activity against HCV1a harboring NS5A Y93C mutant infected in human HuH7 cells assessed as inhibition of viral replication after 4 days by luciferase reporter gene assay; type: functional, Hepacivirus hominis, subtype 1a, Huh-7
Homo sapiens [2] = organism: Homo sapiens; assay: Toxicity in HCV1 infected patient assessed as mortality at 5 to 200 mg qd for 3 days; type: organism-based; details: in vivo, 72 h
Hepatitis C virus [3] = assay: Resistant ratio of EC50 for wild type HCV1a to EC50 for HCV1a harboring NS5A M28V mutant infected in human HuH7 cells; type: functional, Hepacivirus hominis, subtype 1a, Huh-7
Hepatitis C virus [4] = assay: Resistant ratio of EC50 for wild type HCV1b to EC50 for HCV1b harboring NS5A L31V mutant infected in human HuH7 cells; type: functional, Hepacivirus hominis, genotype 1b, Huh-7
Hepatitis C virus [5] = assay: Antiviral activity against HCV1a harboring NS5A H58D mutant infected in human HuH7 cells assessed as inhibition of viral replication after 4 days by luciferase reporter gene assay; type: functional, Hepacivirus hominis, subtype 1a, Huh-7
Hepatitis C virus [6] = assay: Resistant ratio of EC50 for wild type HCV1a to EC50 for HCV1a harboring NS5A Y93H mutant infected in human HuH7 cells; type: functional, Hepacivirus hominis, subtype 1a, Huh-7
[7] = Tmax in monkey at 2.5 mg/kg, po; type: ADME, organism-based, Macaca mulatta; design: dose 2.5 mg/kg, route oral; details: rhesus monkey, in vivo
Hepatitis C virus [8] = assay: Resistant ratio of EC50 for wild type HCV1b to EC50 for HCV1b harboring NS5A Y93H mutant infected in human HuH7 cells; type: functional, Hepacivirus hominis, genotype 1b, Huh-7
Hepatitis C virus [9] = assay: Antiviral activity against HCV1b harboring NS5A Y93H mutant infected in human HuH7 cells assessed as inhibition of viral replication after 4 days by luciferase reporter gene assay; type: functional, Hepacivirus hominis, genotype 1b, Huh-7
[10] = AUC in monkey at 2.5 mg/kg, po; type: ADME, organism-based, Macaca mulatta; design: dose 2.5 mg/kg, route oral; details: rhesus monkey, plasma
[11] = Oral bioavailability in monkey at 2.5 mg/kg; type: ADME, organism-based, Macaca mulatta; details: rhesus monkey, in vivo
[12] = Cmax in dog at 2.5 mg/kg, po; type: ADME, organism-based, Canis lupus familiaris; design: dose 2.5 mg/kg, route oral; details: in vivo
[13] = Volume of distribution at steady state in dog at 1 mg/kg, iv; type: ADME, organism-based, Canis lupus familiaris; design: dose 1 mg/kg, route intravenous; details: in vivo, read-out: Vdss
[14] = Half life in rat at 3 mg/kg, po; type: ADME, organism-based; design: dose 3 mg/kg, route oral; details: in vivo
Hepatitis C virus [15] = assay: Antiviral activity against HCV2a infected in human HuH7 cells assessed as inhibition of viral replication after 4 days by luciferase reporter gene assay; type: functional, organism-based, Hepacivirus hominis; details: genotype 2a, Huh-7, 96 h
[16] = Oral bioavailability in rat at 3 mg/kg; type: ADME, organism-based; details: in vivo
Hepatitis C virus [17] = assay: Antiviral activity against HCV1a harboring NS5A Y93H mutant infected in human HuH7 cells assessed as inhibition of viral replication after 4 days by luciferase reporter gene assay; type: functional, Hepacivirus hominis, subtype 1a, Huh-7
[18] = Half life in rat at 3 mg/kg, iv; type: ADME, organism-based; design: dose 3 mg/kg, route intravenous; details: in vivo
[19] = Clearance in rat at 3 mg/kg, iv; type: ADME, organism-based; design: dose 3 mg/kg, route intravenous; details: in vivo
[20] = AUC in dog at 2.5 mg/kg, po; type: ADME, organism-based, Canis lupus familiaris; design: dose 2.5 mg/kg, route oral; details: plasma
[21] = Half life in dog at 1 mg/kg, iv; type: ADME, organism-based, Canis lupus familiaris; design: dose 1 mg/kg, route intravenous; details: in vivo
[22] = Clearance in dog at 1 mg/kg, iv; type: ADME, organism-based, Canis lupus familiaris; design: dose 1 mg/kg, route intravenous; details: in vivo
Hepatitis C virus [23] = assay: Antiviral activity against HCV1a harboring NS5A Y93N mutant infected in human HuH7 cells assessed as inhibition of viral replication after 4 days by luciferase reporter gene assay; type: functional, Hepacivirus hominis, subtype 1a, Huh-7
Hepatitis C virus [24] = assay: Antiviral activity against HCV6a infected in human HuH7 cells assessed as inhibition of viral replication after 4 days by luciferase reporter gene assay; type: functional, organism-based, Hepacivirus hominis; details: genotype 6a, Huh-7, 96 h
Hepatitis C virus [25] = assay: Resistant ratio of EC50 for wild type HCV1b to EC50 for HCV1b harboring NS5A R30Q and Y93H mutant infected in human HuH7 cells; type: functional, Hepacivirus hominis, genotype 1b, Huh-7
[26] = Half life in HCV1 infected patient at 5 to 200 mg qd for 3 days; type: ADME, organism-based; details: human, in vivo
Hepatitis C virus [27] = assay: Antiviral activity against HCV1b harboring NS5A L31F mutant infected in human HuH7 cells assessed as inhibition of viral replication after 4 days by luciferase reporter gene assay; type: functional, Hepacivirus hominis, genotype 1b, Huh-7
[28] = Cmax in rat at 3 mg/kg, po; type: ADME, organism-based; design: dose 3 mg/kg, route oral; details: in vivo
Hepatitis C virus [29] = assay: Antiviral activity against HCV1b Con1 infected in human HuH7 cells assessed as inhibition of viral replication after 4 days by luciferase reporter gene assay in presence of 40% human plasma; type: functional, organism-based, Hepacivirus hominis; details: isolate Con1, Huh-7, Plasma, 96 h
Hepatitis C virus [30] = assay: Resistant ratio of EC50 for wild type HCV1a to EC50 for HCV1a harboring NS5A Y93C mutant infected in human HuH7 cells; type: functional, Hepacivirus hominis, subtype 1a, Huh-7
Hepatitis C virus [31] = assay: Antiviral activity against HCV1a harboring NS5A Q30R mutant infected in human HuH7 cells assessed as inhibition of viral replication after 4 days by luciferase reporter gene assay; type: functional, Hepacivirus hominis, subtype 1a, Huh-7
Hepatitis C virus [32] = assay: Antiviral activity against HCV2b infected in human HuH7 cells assessed as inhibition of viral replication after 4 days by luciferase reporter gene assay; type: functional, organism-based, Hepacivirus hominis; details: genotype 2b, Huh-7, 96 h
Hepatitis C virus [33] = assay: Antiviral activity against HCV1a H77 infected in human HuH7 cells assessed as inhibition of viral replication after 4 days by luciferase reporter gene assay in presence of 40% human plasma; type: functional, organism-based, Hepacivirus hominis; details: genotype 1a H77, Huh-7, Plasma, 96 h
[34] = Tmax in rat at 3 mg/kg, po; type: ADME, organism-based; design: dose 3 mg/kg, route oral; details: in vivo
Homo sapiens [35] = organism: Homo sapiens; assay: Toxicity in HCV1 infected patient assessed as laboratory abnormalities at 5 to 200 mg qd for 3 days; type: organism-based; details: in vivo, 72 h
Hepatitis C virus [36] = assay: Resistant ratio of EC50 for wild type HCV1b to EC50 for HCV1b harboring NS5A L31F and Y93H mutant infected in human HuH7 cells; type: functional, Hepacivirus hominis, genotype 1b, Huh-7
Hepatitis C virus [37] = assay: Antiviral activity against HCV1b harboring NS5A L31M and Y93H mutant infected in human HuH7 cells assessed as inhibition of viral replication after 4 days by luciferase reporter gene assay; type: functional, Hepacivirus hominis, genotype 1b, Huh-7
[38] = Half life in dog at 2.5 mg/kg, po; type: ADME, organism-based, Canis lupus familiaris; design: dose 2.5 mg/kg, route oral; details: in vivo
[39] = AUC in rat at 3 mg/kg, po; type: ADME, organism-based; design: dose 3 mg/kg, route oral; details: plasma
Hepatitis C virus [40] = assay: Antiviral activity against HCV1b harboring NS5A R30Q and Y93H mutant infected in human HuH7 cells assessed as inhibition of viral replication after 4 days by luciferase reporter gene assay; type: functional, Hepacivirus hominis, genotype 1b, Huh-7
[41] = Volume of distribution at steady state in rat at 3 mg/kg, iv; type: ADME, organism-based; design: dose 3 mg/kg, route intravenous; details: in vivo, read-out: Vdss
Hepatitis C virus [42] = assay: Antiviral activity against HCV1b harboring NS5A L31V and Y93H mutant infected in human HuH7 cells assessed as inhibition of viral replication after 4 days by luciferase reporter gene assay; type: functional, Hepacivirus hominis, genotype 1b, Huh-7
Hepatitis C virus [43] = assay: Antiviral activity against HCV1b harboring NS5A L31V mutant infected in human HuH7 cells assessed as inhibition of viral replication after 4 days by luciferase reporter gene assay; type: functional, Hepacivirus hominis, genotype 1b, Huh-7
Hepatitis C virus [44] = assay: Antiviral activity against HCV1b Con1 infected in human HuH7 cells assessed as inhibition of viral replication after 4 days by luciferase reporter gene assay; type: functional, organism-based, Hepacivirus hominis; details: isolate Con1, Huh-7, 96 h
[45] = Metabolic stability in rat liver microsomes assessed as compound remaining after 30 mins; type: ADME; details: read-out: Stability
[46] = Cmax in monkey at 2.5 mg/kg, po; type: ADME, organism-based, Macaca mulatta; design: dose 2.5 mg/kg, route oral; details: rhesus monkey, in vivo
Hepatitis C virus [47] = assay: Antiviral activity against HCV5a infected in human HuH7 cells assessed as inhibition of viral replication after 4 days by luciferase reporter gene assay; type: functional, organism-based, Hepacivirus hominis; details: genotype 5a, Huh-7, 96 h
[48] = Cmax in HCV1 infected patient at 5 to 200 mg qd for 3 days; type: ADME, organism-based; details: human, in vivo

COC(=O)N[C@H](C(=O)N1CCC[C@H]1C(=O)Nc1ccc([C@@H]2CC[C@@H](c3ccc(NC(=O)[C@@H]4CCCN4C(=O)[C@@H](NC(=O)OC)C(C)C)cc3)N2c2ccc(C(C)(C)C)cc2)cc1)C(C)C [OMBITASVIR]
Efficacy (Hepatitis C virus [1]): 24%
Activity (Homo sapiens [2]): Non-toxic
Ratio EC50 (Hepatitis C virus [3]): 58
Ratio EC50 (Hepatitis C virus [4]): 8
Efficacy (Hepatitis C virus [5]): 66%
Ratio EC50 (Hepatitis C virus [6]): 41382
Tmax [7]: 3.3 h
Ratio EC50 (Hepatitis C virus [8]): 77
Efficacy (Hepatitis C virus [9]): 73%
AUC [10]: 2400 ng·h/mL
bioavailability [11]: 35%
Cmax [12]: 640 ng/mL
Vd [13]: 1.8 L/kg
half-life [14]: 15.9 h
EC50 (Hepatitis C virus [15]): 0.0124 nM
bioavailability [16]: 6.2%
Efficacy (Hepatitis C virus [17]): 18%
half-life [18]: 9.9 h
clearance [19]: 10.8 mL/min/kg
AUC [20]: 8000 ng·h/mL
half-life [21]: 7.9 h
clearance [22]: 3 mL/min/kg
Efficacy (Hepatitis C virus [23]): 25%
EC50 (Hepatitis C virus [24]): 0.415 nM
Ratio EC50 (Hepatitis C virus [25]): 284
half-life [26]: 25 h
Efficacy (Hepatitis C virus [27]): 127%
Cmax [28]: 10 ng/mL
EC50 (Hepatitis C virus [29]): 0.056 nM
Ratio EC50 (Hepatitis C virus [30]): 1675
Efficacy (Hepatitis C virus [31]): 60%
EC50 (Hepatitis C virus [32]): 0.0043 nM
EC50 (Hepatitis C virus [33]): 0.186 nM
Tmax [34]: 3.7 h
Activity (Homo sapiens [35]): Non-toxic
Ratio EC50 (Hepatitis C virus [36]): 10270
Efficacy (Hepatitis C virus [37]): 11%
half-life [38]: 7.3 h
AUC [39]: 290 ng·h/mL
Efficacy (Hepatitis C virus [40]): 60%
Vd [41]: 5.9 L/kg
Efficacy (Hepatitis C virus [42]): 24%
Efficacy (Hepatitis C virus [43]): 86%
EC50 (Hepatitis C virus [44]): 0.005 nM
remaining at 0.5 h [45]: 73%
Cmax [46]: 290 ng/mL
EC50 (Hepatitis C virus [47]): 0.0043 nM
Cmax [48]: 5.7 ng/mL
